Assay [1] deals with Sigma non-opioid intracellular receptor 1 (Cavia porcellus, UniProt Q60492). Nature of the assay: Displacement of [3H](+)-pentazocine from sigma 1 receptor in guinea pig brain cortex membranes after 120 mins by scintillation counting analysis. The format is cell membranes.
Assay [2] addresses T1, Sigma intracellular receptor 2 (Rattus norvegicus, UniProt Q5U3Y7).
T1 sequence (Q5U3Y7 whole entry): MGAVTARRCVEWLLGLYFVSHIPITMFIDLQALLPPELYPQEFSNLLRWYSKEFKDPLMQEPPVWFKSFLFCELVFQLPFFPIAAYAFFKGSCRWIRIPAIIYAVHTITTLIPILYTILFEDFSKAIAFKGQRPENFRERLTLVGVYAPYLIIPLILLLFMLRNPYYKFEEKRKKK
Nature of the assay: Displacement of [3H]-di-o-tolylguanidine from sigma2 receptor in rat liver membranes incubated for 120 mins in the presence of sigma1 receptor ligand (+)-pentazocine by scintillation counting method. Type of assay: cell membranes.

Assay [3] in a line: Selectivity ratio of Ki for displacement of [3H]DTG from sigma2 receptor in rat liver membranes to Ki for displacement of (+)-[3H]pentazocine from sigma 1 receptor in guinea pig brain cortex membranes. Type of assay: cell membranes. In general terms: Displacement assays read how much labelled ligand stays bound in the presence of the test substance.
A further assay deals with Mu-type opioid receptor (Cavia porcellus, UniProt P97266). The experiment in a line: Displacement of [3H]DAMGO from mu opioid receptor in guinea pig brain membranes after 120 mins by scintillation counting analysis. Type of assay: cell membranes.
Mu-type opioid receptor, sequence (P97266 whole entry): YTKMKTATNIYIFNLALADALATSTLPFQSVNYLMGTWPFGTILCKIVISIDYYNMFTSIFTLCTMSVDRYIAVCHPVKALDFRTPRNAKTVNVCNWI
Assay [4] has as its target Delta-type opioid receptor (Rattus norvegicus, UniProt P33533). Nature of the assay: Displacement of [3H]DPDPE from delta opioid receptor in rat membranes after 120 mins by scintillation counting analysis. The format is cell membranes.
Assay [5] has as its target Kappa-type opioid receptor (Cavia porcellus, UniProt P41144). The experiment in a line: Displacement of [3H]U69,593 from kappa opioid receptor in guinea pig brain membrane after 120 mins by scintillation counting analysis. The format is cell membranes.
Assay [6] concerns the target Sigma intracellular receptor 2 (Homo sapiens, UniProt Q5BJF2). Nature of the assay: Displacement of [3H]-di-o-tolylguanidine from sigma2 receptor in human RT4 cell membranes incubated for 120 mins in the presence of sigma1 receptor ligand (+)-pentazocine by scintillation counting method.
For assay [7], the target named is Delta-type opioid receptor (Rattus norvegicus) (UniProt P33533). The experiment in a line: Displacement of [3H]DPDPE from delta opioid receptor in rat membrane at 1 uM after 120 mins by scintillation counting analysis relative to control. Type of assay: cell membranes.
Delta-type opioid receptor (Rattus norvegicus), sequence (P33533 whole entry): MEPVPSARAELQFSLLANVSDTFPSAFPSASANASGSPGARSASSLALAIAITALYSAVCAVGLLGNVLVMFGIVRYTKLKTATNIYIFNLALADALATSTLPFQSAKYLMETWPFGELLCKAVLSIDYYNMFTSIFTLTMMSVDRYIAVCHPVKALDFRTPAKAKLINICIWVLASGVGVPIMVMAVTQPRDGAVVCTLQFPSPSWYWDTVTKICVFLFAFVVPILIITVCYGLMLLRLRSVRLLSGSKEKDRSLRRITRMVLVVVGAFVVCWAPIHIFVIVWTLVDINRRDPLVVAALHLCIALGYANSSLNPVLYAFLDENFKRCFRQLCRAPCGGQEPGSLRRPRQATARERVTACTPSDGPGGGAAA
Assay [8] deals with Kappa-type opioid receptor (Cavia porcellus) (UniProt P41144). The experiment in a line: Displacement of [3H]U69,593 from kappa opioid receptor in guinea pig brain membrane at 1 uM after 120 mins by scintillation counting analysis relative to control. The format is cell membranes.
Kappa-type opioid receptor (Cavia porcellus), sequence (P41144 whole entry): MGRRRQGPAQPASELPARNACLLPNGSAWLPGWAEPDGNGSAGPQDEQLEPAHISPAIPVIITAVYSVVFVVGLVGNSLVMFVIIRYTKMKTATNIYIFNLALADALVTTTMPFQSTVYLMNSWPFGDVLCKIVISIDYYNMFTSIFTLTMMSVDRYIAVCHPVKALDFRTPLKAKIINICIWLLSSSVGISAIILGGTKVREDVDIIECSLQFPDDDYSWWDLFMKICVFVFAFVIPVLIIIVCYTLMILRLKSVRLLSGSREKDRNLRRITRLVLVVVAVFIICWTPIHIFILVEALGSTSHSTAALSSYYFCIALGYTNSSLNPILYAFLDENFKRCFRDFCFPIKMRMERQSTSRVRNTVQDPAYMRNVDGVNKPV

Delta-type opioid receptor, sequence (P33533 whole entry): as the sequence (P33533 whole entry) above
Sigma intracellular receptor 2 (Homo sapiens, UniProt Q5BJF2), sequence (Q5BJF2 whole entry): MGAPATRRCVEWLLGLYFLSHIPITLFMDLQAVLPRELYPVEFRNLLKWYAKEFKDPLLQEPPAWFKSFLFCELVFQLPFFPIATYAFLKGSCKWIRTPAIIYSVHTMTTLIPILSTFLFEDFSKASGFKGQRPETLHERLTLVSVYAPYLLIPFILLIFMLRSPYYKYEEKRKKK
Sigma non-opioid intracellular receptor 1, sequence (Q60492 whole entry): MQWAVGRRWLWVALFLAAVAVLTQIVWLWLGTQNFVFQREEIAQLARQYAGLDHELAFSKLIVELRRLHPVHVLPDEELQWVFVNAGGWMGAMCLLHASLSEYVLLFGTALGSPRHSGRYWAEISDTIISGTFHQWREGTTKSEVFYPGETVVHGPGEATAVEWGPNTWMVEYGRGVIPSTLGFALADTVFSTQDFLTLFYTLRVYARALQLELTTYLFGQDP
Kappa-type opioid receptor, sequence (P41144 whole entry): as the sequence (P41144 whole entry) above

In general, Ki refers to a dissociation constant, usually derived from enzyme kinetics or from competition with a known ligand. For `C1=Cc2ccccc2[C@]2(CC[C@@H](NCC3CCCCC3)CC2)O1`, the inhibition constant Ki turned out to be 12 nM in assay [1]; 53 nM in assay [2]; 258 nM on Mu-type opioid receptor; 479 nM in assay [4]; 604 nM in [5]; 7 nM in [6]. Also, the Ratio Ki in assay [3] lay within 5 to 10.

Take `c1ccc2c(c1)CCO[C@]21CC[C@H](NCC2CCCCC2)CC1`: the Ki in assay [1] was 15 nM; in assay [2], 99 nM; at Mu-type opioid receptor it was 114 nM; in assay [4], 178 nM; in assay [5], 236 nM; in assay [6], 8 nM. In addition, the Ratio Ki in assay [3] was in the range of 5 to 10.

What is called inhibition is the drop in the measured response relative to a control, in per cent. Read a low inhibition as little suppression. In the case of `CN(CC1CCCCC1)[C@H]1CC[C@]2(CC1)OC=Cc1ccccc12`, the Ki in assay [1] was 2.3 nM; in [2], 33 nM; on Mu-type opioid receptor, 391 nM; in assay [6] it was 4.6 nM. Further, the Ratio Ki in assay [3] lay in the range of 5 to 10. This compound also came in with an inhibition in [7] of 38%.

As to `CCOC1Cc2ccccc2[C@]2(CC[C@H](N(C)CC3CCCCC3)CC2)O1` (stereo not given in full), the Ki is 8.1 nM in [1]; 42 nM in assay [2]; 297 nM at Mu-type opioid receptor; 356 nM in [4]; 14 nM in [6]. For the same compound, in assay [3], the Ratio Ki is 5 to 10. This compound showed an inhibition in [8] of 18%.

Take `CN(CC1CCCCC1)[C@H]1CC[C@@]2(CC1)OCCc1ccccc12`: the Ki was determined as 8 nM in assay [1], 175 nM in assay [2], 187 nM in assay [4] and 12 nM in [6]. Also, the Ratio Ki in assay [3] worked out at 22. Also, the inhibition in [8] came out at 23%.

For `COC1O[C@]2(CC[C@@H](NCc3ccccc3)CC2)c2ccccc21` (stereo not given in full), the Ki came out at 50 nM in assay [1]; 751 nM in assay [2]; 768 nM at Mu-type opioid receptor; 655 nM in [4]; 1140 nM in assay [5]. Further, in assay [3], the Ratio Ki lay within 5 to 10.

Take `CN(CC1CCCCC1)[C@H]1CC[C@@]2(CC1)OC=Cc1ccccc12`: the Ki in [1] was found to be 4.9 nM; in [2] it was 81 nM; on Mu-type opioid receptor it was 163 nM; in assay [6], 16 nM. Besides, the Ratio Ki in assay [3] lay in the range of 5 to 10. Also, the inhibition in assay [7] is 11%.

Consider `COC1O[C@]2(CC[C@H](NCC3CCCCC3)CC2)c2ccccc21` (stereo not given in full), for which the Ki was found to be 19 nM in [1]; 133 nM in [2]; 273 nM on Mu-type opioid receptor; 114 nM in assay [4]; 506 nM in [5]; 39 nM in assay [6]. Further, the Ratio Ki in [3] lay within 5 to 10.

Turning to `CCOC1Cc2ccccc2[C@]2(CC[C@@H](NCC3CCCCC3)CC2)O1` (stereo not given in full), the inhibition constant Ki in assay [1] came out at 183 nM; in assay [2] it was 161 nM; at Mu-type opioid receptor, 185 nM; in [4], 185 nM; in assay [5], 85 nM; in [6] it was 16 nM. Besides, the Ratio Ki in assay [3] was in the range of 5 to 10.

For `CCOC1Cc2ccccc2[C@]2(CC[C@H](NCC3CCCCC3)CC2)O1` (stereo not given in full), the Ki in [1] stood at 36 nM; in assay [2], 308 nM; at Mu-type opioid receptor it was 495 nM; in assay [4], 432 nM; in assay [5], 745 nM; in [6], 46 nM. For the same compound, the Ratio Ki in assay [3] is 5 to 10.

In the case of `COC1O[C@]2(CC[C@@H](NCC3CCCCC3)CC2)c2ccccc21` (stereo not given in full), the Ki was determined as 20 nM in assay [1]; 52 nM in assay [2]; 501 nM at Mu-type opioid receptor; 143 nM in assay [4]; 11 nM in [6]. Besides, the Ratio Ki in assay [3] fell in the range of 5 to 10. Moreover, the inhibition in assay [8] was 23%.

For the compound `COC1O[C@]2(CC[C@H](N(C)CC3CCCCC3)CC2)c2ccccc21` (stereo not given in full), the Ki in assay [1] stood at 8 nM; in assay [2], 164 nM; at Mu-type opioid receptor it was 231 nM; in assay [4], 254 nM; in assay [5] it was 639 nM; in assay [6] it was 9.4 nM. The Ratio Ki in [3] came out at 21.

The record behind these values is ChEMBL document CHEMBL4385605, “Synthesis and Structure-Affinity Relationships of Spirocyclic Benzopyrans with Exocyclic Amino Moiety” (J Med Chem, 2019).
